Source: BindingDB's records for doi:10.1016/j.bmcl.2004.01.047 (University of Huddersfield, 2004)

Assay: Binding affinity against metallo-beta-lactamase bacillus cereus(BCII)

SMILES: CC1CS[C@H](c2nc(O)c(-c3ccccc3)[nH]c2=S)NC1C(=O)O (stereo partly drawn) [(R)-5-Methyl-2-(6-oxo-5-phenyl-3-thioxo-piperazin-2-yl)-3,6-dihydro-2H-[1,3]thiazine-4-carboxylic acid anion]
- Ki: 29 µM
